Eight molecules from US7563882B2, “Polynucleotides encoding antibodies that bind to the C35 polypeptide” (University of Rochester, priority 2002, dated 2009) can be followed below.

For experiment [1], the system named is B/C.N cells. In words: 51Cr release (CML), sensitization of B/C.N to lysis by tumor specific CTL. The experiment is classed as cell-based, mouse. The conditions noted are these: for sensitization of B/C.N cells to lysis by tumor-specific CTL: 4 hours; for peptide concentration to sensitize targets to lysis by CTL: B/C.N targets.
Experiment [2] relates to EBV-B target cells. In words: C35 peptide mediated T cell lysis of peptide pulsed EBV-B cells (Table 10). The experiment is classed as cell-based, human.
Experiment [3] has as its system T cell line 4. Type of experiment: cell-based, human.
Experiment [4] deals with HLA-B*0702 (Homo sapiens, UniProt P01889). In words: Fluorescence polarization competition for MHC-peptide binding. The conditions noted are these: soluble HLA-B*0702, fluorescent labeled binding standard. The protocol:
A similar analysis was conducted with C35 peptides that bind to soluble HLA-B*0702 employing a fluorescent labeled HLA-B*0702 binding standard and suitable relevant and irrelevant peptides to calibrate inhibition of binding by test peptides. Note that these inhibition values are sensitive to the choice and concentration of both MHC molecule and specific fluorescent peptides under the same assay conditions.

In experiment [5] the target is T1, hC35 protein (Homo sapiens, UniProt Q9BRT3).
T1 construct: made in house; host or cells: E. coli
T1 sequence (Q9BRT3 1-115): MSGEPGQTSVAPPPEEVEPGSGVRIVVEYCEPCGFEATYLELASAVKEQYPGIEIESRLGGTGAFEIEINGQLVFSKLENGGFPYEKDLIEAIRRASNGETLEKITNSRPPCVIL
In words: Western Blot immunodetection with hybridoma supernatants. The experiment is classed as binding. The conditions noted are these: 100 ng purified recombinant C35 protein or control β-galactosidase per lane. The protocol:
Western Blot Immunodetection was performed with supernatants from selected hybridoma clones. […] In these experiments, 100 ng of purified recombinant C35 protein or control β-galactosidase protein was loaded in each lane of an 18% SDS polyacrylamide gel. Gels were transferred to PVDF membrane, as is well known to those practiced in the art. Membranes were blocked with Tris buffered saline (TBS), including Tween-20 and 5% non-fat dry milk. Each blot was incubated with various dilutions of hybridoma supernatants as the primary antibody, followed by incubation with a secondary antibody, goat anti-mouse IgG conjugated to HRP, and detected with the chemiluminescent substrate, ECL. Similar results were obtained with 11B10 (not shown).
(In general: A western blot detects proteins with antibodies after separation by electrophoresis.)

Experiment [6] concerns the target T2, C35 (Homo sapiens, UniProt Q9BRT3).
T2 construct: from tissue; host or cells: paraffin sections of primary human breast tumor (invasive breast adenocarcinoma, patient 01A6) and normal breast tissue
T2 sequence (Q9BRT3 1-115): T1 sequence (Q9BRT3 1-115)
Description: Immunohistochemical staining of primary breast tumor sections. The experiment is classed as binding. The conditions noted are these: paraffin sections, affinity purified antibody. From the text:
Antibody was affinity purified from 1F2 hybridoma supernatant. Paraffin-embedded slides were deparaffinized with xylene and rehydrated through graded alcohols. Target retrieval was achieved through steam and high pH treatment. […] Slides were counterstained with hematoxylin, dehydrated with EtOH/xylene, and coverslipped.

With “L348-56 (T54): wild type ribosomal protein L3 peptide 48-56 with Thr 54 (GYKAGMTHI) [reference compound]”, in experiment [1], the “sensitization of B/C.N cells to lysis by tumor-specific CTL” value (from here on “sensitization of B/C.N cells to lysis”) is given as “did not” and the peptide concentration to sensitize targets to lysis by CTL was greater than 100 µM.

On to KLENGGFPY [peptide 77-85], for which the “% Lysis EBV-B cell Target” value in experiment [2] (T cell clone #46, donor (A2, A3; B18, B44), target pulsed with peptide) turned out to be 97.1%. For the same molecule, in experiment [2] (T cell clones from donor with A2, A3, B18, B44 HLA haplotypes), the “lytic activity on EBV-B cells pulsed with peptide” value was 97.1%. The GM-CSF stimulation entry in experiment [3] is “greatest stimulation”. Usually % Inhibition stands for how much of the control response was suppressed. Read a low % Inhibition as little suppression. In the case of NSRPPCVIL [N107 to L115], in experiment [4], the “% Inhibition” value came to 68.2%. Still for that read-out and setting: the figure for ITNSRPPCV [105-113] is 45.2%. As for “L348-56 (I54): peptide of ribosomal protein L3, positions 48-56 with Ile 54; target epitope of tumor-specific CTL (GYKAGMIHI)”, in experiment [1], the “sensitization of B/C.N cells to lysis” value is “sensitized B/C.N to lysis” and the “peptide concentration to sensitize targets to lysis by CTL” value was no more than 0.01 µM. On to “L345-54 (I54): peptide of ribosomal protein L3, positions 45-54 with Ile 54 (AFLGYKAGMI)”, for which, in experiment [1], the “sensitization of B/C.N cells to lysis” value is reported as “did not”.

B1: 3E10: C35-specific monoclonal antibody; Kappa and IgG1 V-genes SEQ ID NOs:150 and 151 (antibody, V domains shown)
VH: MMVLSLLYLLTALPGILSEVQLQESGPSLVKPSQTLSLTCSVTGDSITSGYWNWIRKFPGNKLEYVGYISYSGGTYYNPSLKSRISITRDTSKNHYYLQLNSVTTEDTATYYCARGAYYGGAFFPYFDVWGAGTTVTVSS
VL: MRFQVQVLGLLLLWISGAHCDVQITQSPSFLAASPGETITINCRASKYISKHLVWYQEKPGETKKLLIYSGSTLQSGLPSRFSGSGSGTDFTLTISSLEPEDFAMYYCQQHNEYPLTFGAGTKLELK
modifications: cDNA of 3E10 V-genes (IgG1); cDNA of 3E10 V-genes (Kappa)
For B1, the “reactivity with hC35 protein in Western Blot” value in experiment [5] is recorded as “reacted specifically”.

B2: 1F2: C35-specific monoclonal antibody; Kappa and IgG1 V-genes SEQ ID NOs:148 and 149 (antibody, V domains shown)
VH: MKVLSLLYLLTAIPGILSDVQLQESGPGLVKPSQSLSLTCSVTGYSITSGYFWNWIRQFPGNKLEWMGYISYDGSNNSNPSLKNRISFTRDTSKNQFFLKFNSVTTDDSAAYYCTRGTTGFAYWGQGTLVTVSA
VL: MDFQVQIFSFLLISASVRMSRGQIVLTQSPAIMSASPGEKVTISCSASSSVSYMNWYQQKPGSSPKPWIYHTSNLASGVPARFSGSGSGTSYSLTISSMEAEDAATYYCQQYHSYPPTFGGGTKLEIK
modifications: cDNA of 1E11/1F2 V-genes (IgG1); cDNA of 1E11/1F2 V-genes (Kappa)
As for B2, in experiment [6], the “immunohistochemical staining of human breast tumors” value is “can detect high levels of endogenous C35 expression” and the “immunohistochemical staining of normal breast tissue” value is on record as “little or no staining”. Further, the “reactivity with hC35 protein in Western Blot” value in experiment [5] is given as “reacted specifically”.
